From ChEMBL document CHEMBL5338814, “Discovery of Small-Molecule Degraders for Alpha-Synuclein Aggregates” (J Med Chem, 2023)
Each block holds one compound with its values, some of them ahead of it. Calls of active or inactive are those of the source. No cut-off for these calls is given here.

Assays:
[1] = target: Baculoviral IAP repeat-containing protein 2/Alpha-synuclein (Homo sapiens) (UniProt Q13490+P37840); assay: PROTAC activity at cIAP1/recombinant alpha-synuclein preformed fibrils seeded in HEK293T cells assessed as decrease in alpha-synuclein aggregates upto 40 uM measured after 48 hrs by immunoblot analysis; type: cell-based
[2] = target: von Hippel-Lindau disease tumor suppressor/Alpha-synuclein (Homo sapiens) (UniProt P37840+P40337); assay: PROTAC activity at VHL/recombinant alpha-synuclein preformed fibrils seeded in HEK293T cells assessed as decrease in alpha-synuclein aggregates upto 40 uM measured after 48 hrs by immunoblot analysis; type: cell-based
[3] = target: T1, Protein cereblon/Alpha-synuclein (Homo sapiens) (UniProt P37840+Q96SW2); assay: PROTAC activity at CRBN/recombinant alpha-synuclein preformed fibrils seeded in HEK293T cells assessed as decrease in alpha-synuclein aggregates upto 40 uM measured after 48 hrs by immunoblot analysis; type: cell-based
[4] = target: T1, Protein cereblon/Alpha-synuclein (Homo sapiens); assay: PROTAC activity at CRBN/recombinant alpha-synuclein preformed fibrils seeded in HEK293T cells assessed as decrease in alpha-synuclein aggregates at 5 to 20 uM measured after 48 hrs by immunoblot analysis; type: cell-based; settings: dose 5-20 µM
HEK-293T [5] = assay: Effect on alpha-synuclein total level in HEK293T cells upto 40 uM measured after 48 hrs by immunoblot analysis; type: functional, cell-based; settings: Homo sapiens
[6] = Drug uptake in HEK293T cell membrane at 10 uM measured at 5 to 360 min by confocal laser scanning microscopic analysis; type: ADME, cell membranes; settings: human, hek-293t, time 5-360 min
HEK-293T [7] = assay: Activation of autophagy-lysosome pathway in HEK293T cells seeded with recombinant alpha-synuclein preformed fibrils assessed as increase in LC3B-II/I ratio at 10 uM incubated for 6 hrs by immunoblot analysis; type: functional, cell-based; settings: Homo sapiens
HEK-293T [8] = assay: Downregulation of alpha-synuclein in HEK293T cells seeded with recombinant alpha-synuclein preformed fibrils at 10 uM incubated for 24 hrs by label free quantification based proteomics analysis; type: functional, cell-based; settings: Homo sapiens
Caenorhabditis elegans [9] = assay: In vivo PROTAC activity at CRBN/Alpha-synuclein overexpressed in Caenorhabditis elegans NL5901 co-expressing YFP fusion protein assessed as reduction in alpha-synuclein-YFP MFI at 20 to 80 uM incubated for 48 hrs by confocal laser scanning microscopic analysis; type: functional, organism-based; settings: dose 20-80 µM
Caenorhabditis elegans [10] = assay: In vivo PROTAC activity at CRBN/Alpha-synuclein overexpressed in Caenorhabditis elegans NL5901 co-expressing YFP fusion protein assessed as induction of alpha-synuclein aggregate degradation incubated for 48 hrs by immunoblot analysis; type: functional, organism-based; settings: dose 20-80 µM
HEK-293T [11] = assay: Activation of autophagy-lysosome pathway in HEK293T cells seeded with recombinant alpha-synuclein preformed fibrils assessed as increase in LAMP1 expression at 10 uM incubated for 6 hrs by immunoblot analysis; type: functional, cell-based; settings: Homo sapiens
HEK-293T [12] = assay: Activation of autophagy-lysosome pathway in HEK293T cells seeded with recombinant alpha-synuclein preformed fibrils harboring adenovirus-mCherry-GFP-LC3B assessed as increase in GFP(-) punctae ratio at 10 uM treated for 6 hrs by DAPI staining based confocal laser scanning microscopic analysis; type: functional, cell-based; settings: Homo sapiens
HEK-293T [13] = assay: Activation of autophagy-lysosome pathway in HEK293T cells seeded with recombinant alpha-synuclein preformed fibrils harboring adenovirus-mCherry-GFP-LC3B assessed as increase in LC3B punctae number at 10 uM treated for 6 hrs by DAPI staining based confocal laser scanning microscopic analysis; type: functional, cell-based; settings: Homo sapiens
Caenorhabditis elegans [14] = assay: In vivo PROTAC activity at CRBN/Alpha-synuclein overexpressed in Caenorhabditis elegans NL5901 co-expressing YFP fusion protein assessed as induction of alpha-synuclein aggregate degradation incubated for 48 hrs by dot blot analysis; type: functional, organism-based; settings: dose 20-80 µM
HEK-293T [15] = assay: Effect on alpha-synuclein total level in HEK293T cells seeded with recombinant alpha-synuclein preformed fibrils upto 40 uM measured after 48 hrs by immunoblot analysis; type: functional, cell-based; settings: Homo sapiens
[16] = 1-Octanol-water partition coefficient, logP of the compound incubated for 24 hrs by HPLC analysis; type: physicochemical
SH-SY5Y [17] = assay: Neuroprotective activity against alpha-synuclein aggregate-induced cell death in human SH-SY5Y cells over-expressing alpha-synuclein preformed fibrils assessed as decrease in cell death at 10 uM by CCK8 assay; type: functional, cell-based
HEK-293T [18] = assay: Activation of autophagy-lysosome pathway in HEK293T cells seeded with recombinant alpha-synuclein preformed fibrils assessed as decrease in p62 level at 10 uM incubated for 6 hrs by immunoblot analysis; type: functional, cell-based; settings: Homo sapiens
HEK-293T [19] = assay: Activation of autophagy-lysosome pathway in HEK293T cells seeded with recombinant alpha-synuclein preformed fibrils assessed as increase in lysosome generation at 10 uM incubated for 6 hrs by LyTR staining based confocal laser scanning microscopic analysis; type: functional, cell-based; settings: Homo sapiens
Caenorhabditis elegans [20] = assay: In vivo PROTAC activity at CRBN/Alpha-synuclein overexpressed in Caenorhabditis elegans NL5901 co-expressing YFP fusion protein assessed as reduction in alpha-synuclein-YFP level at 20 to 80 uM incubated for 48 hrs by confocal laser scanning microscopic analysis; type: functional, organism-based; settings: dose 20-80 µM
HEK-293T [21] = assay: Activation of autophagy-lysosome pathway in HEK293T cells seeded with recombinant alpha-synuclein preformed fibrils harboring adenovirus-mCherry-GFP-LC3B assessed as increase in LC3B punctae density at 10 uM treated for 6 hrs by DAPI staining based confocal laser scanning microscopic analysis; type: functional, cell-based; settings: Homo sapiens
SH-SY5Y [22] = assay: Neuroprotective activity against alpha-synuclein aggregate-induced cell injury in human SH-SY5Y cells over-expressing alpha-synuclein preformed fibrils assessed as decrease in LDH release at 10 uM by LDH assay; type: functional, cell-based

SMILES: CC(C)C[C@H](NC(=O)[C@@H](O)[C@H](N)Cc1ccccc1)C(=O)NCCOCCOCCOCCNc1cccc(-c2cc(-c3ccc4c(c3)OCO4)n[nH]2)c1
Activity [1]: Active

SMILES: CC(C)C[C@H](NC(=O)[C@@H](O)[C@H](N)Cc1ccccc1)C(=O)NCCOCCOCCNc1cccc(-c2cc(-c3ccc4c(c3)OCO4)n[nH]2)c1
Activity [1]: Active

SMILES: CN1C(=O)CCC(N2C(=O)c3cccc(NCCOCCOCCOCCNC(=O)CNc4cccc(-c5cc(-c6ccc7c(c6)OCO7)n[nH]5)c4)c3C2=O)C1=O (stereo not given)
Activity [4]: inactive

SMILES: O=C(CNc1cccc(-c2cc(-c3ccc4c(c3)OCO4)n[nH]2)c1)NCCOCCOCCOCCNc1cccc2c1C(=O)N(C1CCC(=O)NC1=O)C2=O (stereo not given)
Activity (HEK-293T [5]): inactive
Drug uptake [6]: Active
Activity (HEK-293T [7]): Active
Activity (HEK-293T [8]): Active
Activity (Caenorhabditis elegans [9]): Active
Activity (Caenorhabditis elegans [10]): Dose-Dependent Effect
Activity (HEK-293T [11]): Active
Activity (HEK-293T [12]): Active
Activity (HEK-293T [13]): Active
Activity (Caenorhabditis elegans [14]): Dose-Dependent Effect
Activity (HEK-293T [15]): inactive
logP at 24 h [16]: 2.04
Activity (SH-SY5Y [17]): Active
Activity (HEK-293T [18]): Active
Activity (HEK-293T [19]): Active
Activity (Caenorhabditis elegans [20]): Active
Activity (HEK-293T [21]): Active
Activity (SH-SY5Y [22]): Active

SMILES: Nc1cccc(-c2cc(-c3ccc4c(c3)OCO4)n[nH]2)c1
Activity [4]: inactive

Continued, values first:

Activity [2]: Active
SMILES: Cc1ncsc1-c1ccc([C@H](C)NC(=O)[C@@H]2C[C@@H](O)CN2C(=O)[C@@H](NC(=O)CCOCCOCCNc2cccc(-c3cc(-c4ccc5c(c4)OCO5)n[nH]3)c2)C(C)(C)C)cc1

Activity [3]: Active
SMILES: O=C(CNc1cccc(-c2cc(-c3ccc4c(c3)OCO4)n[nH]2)c1)NCCOCCOCCNc1cccc2c1C(=O)N(C1CCC(=O)NC1=O)C2=O (stereo not given)

Activity [2]: Active
SMILES: Cc1ncsc1-c1ccc([C@H](C)NC(=O)[C@@H]2C[C@@H](O)CN2C(=O)[C@@H](NC(=O)CCOCCOCCOCCNc2cccc(-c3cc(-c4ccc5c(c4)OCO5)n[nH]3)c2)C(C)(C)C)cc1
